{"source": "paper PMC3606385", "about": "(PLoS ONE, 2013)", "key": {"Human 11β-HSD1 [1]": {"biological_target": "T1, Human 11β-HSD1 (Homo sapiens, UniProt P28845)", "T1 construct": "expressed in transfected cells; host or cells: CHOP cells (transient, FuGENE)", "T1 sequence (P28845 whole entry)": "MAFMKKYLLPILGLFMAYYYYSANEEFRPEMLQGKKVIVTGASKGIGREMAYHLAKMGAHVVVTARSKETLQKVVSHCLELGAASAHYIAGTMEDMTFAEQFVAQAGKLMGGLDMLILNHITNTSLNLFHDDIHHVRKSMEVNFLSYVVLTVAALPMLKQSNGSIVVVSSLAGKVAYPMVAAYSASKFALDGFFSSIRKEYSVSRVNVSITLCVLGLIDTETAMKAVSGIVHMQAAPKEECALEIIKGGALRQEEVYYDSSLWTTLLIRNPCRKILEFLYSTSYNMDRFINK", "settings": "cited from earlier work"}, "mouse 11β-HSD1": {"tested_on": "mouse 11β-HSD1", "settings": "cited from earlier work"}, "Human 11β-HSD2 [2]": {"biological_target": "T2, Human 11β-HSD2 (Homo sapiens, UniProt P80365)", "T2 construct": "The rat and human kidney microsomes were used for 11β-HSD2 sources; tissue Gentest (Woburn, MA); host or cells: human kidney microsomes", "T2 sequence (P80365 1-405)": "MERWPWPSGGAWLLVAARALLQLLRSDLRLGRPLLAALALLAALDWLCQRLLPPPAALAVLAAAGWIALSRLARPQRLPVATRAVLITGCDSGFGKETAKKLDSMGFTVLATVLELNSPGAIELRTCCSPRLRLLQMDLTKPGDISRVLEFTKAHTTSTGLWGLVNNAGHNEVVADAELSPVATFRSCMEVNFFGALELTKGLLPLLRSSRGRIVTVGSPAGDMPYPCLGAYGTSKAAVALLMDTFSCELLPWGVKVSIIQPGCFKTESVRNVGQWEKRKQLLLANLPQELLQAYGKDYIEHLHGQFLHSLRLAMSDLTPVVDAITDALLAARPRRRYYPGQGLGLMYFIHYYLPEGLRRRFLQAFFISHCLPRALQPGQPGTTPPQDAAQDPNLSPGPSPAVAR", "settings": "cited from earlier work"}, "mouse 11β-HSD2": {"tested_on": "mouse 11β-HSD2", "parameters": "method as in PMID 16103409", "settings": "cited from earlier work"}, "Rat 11β-HSD1": {"biological_target": "T3, Rat 11β-HSD1 (Rattus norvegicus, UniProt P16232)", "T3 construct": "endogenous in cells; host or cells: primary adult Sprague-Dawley rat Leydig cells", "T3 sequence (P16232 whole entry)": "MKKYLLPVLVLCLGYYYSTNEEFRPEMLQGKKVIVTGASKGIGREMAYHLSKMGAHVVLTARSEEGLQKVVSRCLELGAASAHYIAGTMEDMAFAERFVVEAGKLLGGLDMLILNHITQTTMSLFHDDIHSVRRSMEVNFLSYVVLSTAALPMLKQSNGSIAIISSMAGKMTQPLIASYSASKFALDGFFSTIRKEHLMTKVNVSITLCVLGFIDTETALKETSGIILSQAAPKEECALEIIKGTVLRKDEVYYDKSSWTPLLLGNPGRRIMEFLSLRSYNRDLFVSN", "experiment": "11β-HSD1 assay in intact rat Leydig cells", "assay_type": "cell-based", "settings": "intact rat Leydig cells", "method": "Rat Leydig cells contain the highest 11β-HSD1 activity in all cell types of rat tissues, and were used for rat 11β-HSD1 enzyme sources. Purified rat Leydig cells were obtained from 90-day-old Sprague-Dawley rats by collagenase digestion of the testes followed by Percoll density centrifugation of the cell suspension, according to the previously described method. […] The purity of cell fractions was evaluated by histochemical staining for 3β-hydroxysteroid dehydrogenase activity with […] etiocholanolone as the steroid substrate.\n(§1) 11β-HSD1 reductase activity was performed in intact cells using endogenous cofactor NADPH as described previously. […] 25×10^3 cells were added to each tube to initiate the reaction and the reaction mixture was incubated for up to 2 hrs, during which the reaction is within the linear range. At the end of reaction, the reaction was stopped by adding 2 ml ice-cold ether. The steroids were extracted, and the organic layer was dried under nitrogen. The steroids were separated chromatographically on thin layer plates in chloroform and methanol (90∶10, v/v), and the radioactivity was measured using a scanning radiometer (System AR2000, Bioscan Inc., Washington, DC) as described previously. The percentage conversion of 11DHC to CORT or cortisone to cortisol was calculated by dividing the radioactive counts identified as 11-OH-steroids by the total counts.\n(§2) The IC50 was determined by adding different concentrations of each compound in the 11β-HSD1 or 11β-HSD2 reaction as described. The mode of inhibition was assayed by adding various concentrations of steroid substrates in the presence of an inhibitor as described."}, "Human 11β-HSD1 [3]": {"biological_target": "T1, Human 11β-HSD1", "experiment": "11β-HSD1 assay in intact CHOP cells transfected with human HSD11B1", "assay_type": "cell-based", "method": "An expression plasmid was constructed to express human 11β-HSD1 (HSD11B1) cDNA in pcDNA I expression vector from its original human HSD11B1 vector (pBluescriptSK+).[15]. The Escherichia coli transformants carrying an insert were selected by colony hybridization, and a clone with the insert in the correct orientation relative to the vector T7 promoter was identified by restriction mapping. All transfections were carried out on 80% confluent cultures in 12-well plates. Aliquots of 1 µg HSD11B1 pcDNA I were transfected into mammalian CHOP cells with the FuGENE Transfection Reagent (Roche) according to manufacturer's protocol. Cells were allowed to grow for 24 hours in media containing 10% fetal bovine serum. Then media were removed and cells were harvested for 11β-HSD1 activity assay.\nas §1, §2"}, "Rat 11β-HSD2": {"biological_target": "T4, Rat 11β-HSD2 (Rattus norvegicus, UniProt P50233)", "T4 construct": "from tissue; host or cells: rat kidney microsomes", "T4 sequence (P50233 1-400)": "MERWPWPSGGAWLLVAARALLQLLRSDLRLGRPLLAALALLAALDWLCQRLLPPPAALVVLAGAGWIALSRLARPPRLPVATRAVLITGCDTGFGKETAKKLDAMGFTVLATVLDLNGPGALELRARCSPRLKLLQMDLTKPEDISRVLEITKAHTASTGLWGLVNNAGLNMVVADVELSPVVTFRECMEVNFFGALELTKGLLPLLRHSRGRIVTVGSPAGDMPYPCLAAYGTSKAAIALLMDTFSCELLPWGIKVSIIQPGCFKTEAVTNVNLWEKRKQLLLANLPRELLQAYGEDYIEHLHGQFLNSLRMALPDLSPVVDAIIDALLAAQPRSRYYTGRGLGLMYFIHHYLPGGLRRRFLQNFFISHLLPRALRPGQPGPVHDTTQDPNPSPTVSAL", "experiment": "11β-HSD2 assay in rat kidney microsomes", "assay_type": "biochemical", "method": "Rats were euthanized by CO2, and livers, testes and kidneys were collected. Rat liver, testis and kidney microsomes were prepared as described previously. In brief, rat liver and kidney were homogenized in […] PBS buffer containing 0.25 M sucrose, and nuclei and large cell debris were removed by centrifugation at 1500× g for 10 min. The post-nuclear supernatants were centrifuged twice at 105,000×g, the resultant microsomal pellets were resuspended. Protein contents were measured by Bio-Rad Dye Reagent Concentrate (Cat.#500-0006). Microsomes were used for measurement of 11β-HSD1 and 11β-HSD2 activities.\nThe rat and human kidney microsomes were used for 11β-HSD2 sources. 11β-HSD2 activity was performed in the microsome according to a previously described method. […] 8 (rat) or 20 (human) µg kidney microsomes were added to each tube to initiate the reaction and the reaction mixture was incubated for up to 3 hrs, during which the reaction is within the linear range. The rest procedure was similar to 11β-HSD1 assay. The percentage conversion of CORT to 11DHC or cortisol to cortisone was calculated by dividing the radioactive counts identified as 11keto-steroids by the total counts.\nas §2"}, "Human 11β-HSD2 [4]": {"biological_target": "T2, Human 11β-HSD2", "experiment": "11β-HSD2 assay in human kidney microsomes", "assay_type": "biochemical", "method": "The rat and human kidney microsomes were used for 11β-HSD2 sources. 11β-HSD2 activity was performed in the microsome according to a previously described method. In brief, the assay tubes contained 25 nM substrate CORT (for rat) or cortisol (for human), spiked with 30,000 cpm their respective ^3H-11β-hydroxyl steroid, 0.2 mM NAD+ and 0.1 mM DTT in the PBS buffer. 8 (rat) or 20 (human) µg kidney microsomes were added to each tube to initiate the reaction and the reaction mixture was incubated for up to 3 hrs, during which the reaction is within the linear range. The rest procedure was similar to 11β-HSD1 assay. The percentage conversion of CORT to 11DHC or cortisol to cortisone was calculated by dividing the radioactive counts identified as 11keto-steroids by the total counts.\nas §2"}, "[5]": {"biological_target": "T5, rat liver microsomal 11β-HSD1 (Rattus norvegicus, UniProt P16232)", "T5 construct": "Rat liver, testis and kidney microsomes were prepared as described previously; from tissue; host or cells: rat liver microsomes", "T5 sequence (P16232 whole entry)": "as the sequence (P16232 whole entry) above", "experiment": "Mode of inhibition (Lineweaver-Burk), rat liver microsomal 11β-HSD1", "assay_type": "biochemical", "settings": "Lineweaver-Burk plot, substrate 11DHC", "method": "(§3) The rat testis and liver or human liver microsomes were used for 11β-HSD1 assay. 11β-HSD1 activity was performed in the microsome according to a previously described method. In brief, the assay tubes contained 25 nM substrate 11DHC (for rat) or cortisone (for human), spiked with 30,000 cpm their respective ^3H-11keto-steroid, 0.2 mM NADPH and 5 mM glucose-6-phosphaare in the PBS buffer. 2 µg microsomes were added to each tube to initiate the reaction and the reaction mixture was incubated for up to 2 hrs, during which the reaction is within the linear range. The rest procedure was similar to 11β-HSD1 assay in intact cells.\nas §2\n(§4) Enzyme data were subjected to nonlinear analysis by GraphPad (Version 5, GraphPad Software Inc., San Diego, CA) for IC50. Lineweaver-Burk plot was used for the mode of inhibition. Data were subjected to analysis by one-way ANOVA followed by Tukey's multiple comparisons testing to identify significant differences between groups when three were calculated. Differences were regarded as significant at P<0.05."}, "human liver 11β-HSD1": {"biological_target": "T6, human liver 11β-HSD1 (Homo sapiens, UniProt P28845)", "T6 construct": "tissue Gentest (Woburn, MA); host or cells: human liver microsomes", "T6 sequence (P28845 whole entry)": "as the sequence (P28845 whole entry) above", "experiment": "Mode of inhibition, human liver 11β-HSD1", "assay_type": "biochemical", "settings": "data not shown", "method": "as §3, §2, §4"}, "hyperglycemic KKAy mouse": {"tested_on": "hyperglycemic KKAy mouse", "parameters": "method as in PMID 12190302", "settings": "hyperglycemic KKAy mouse model; cited from earlier work"}}, "note": "Entries after “also recorded” stand apart in the source; their conditions may differ. Like-named read-outs stand apart in the source and are kept apart here."}
{"compound": "C1CCc2nnc(C34CC5CC(CC(C5)C3)C4)n2CC1", "note": "[MK544]", "values": [{"measurement": "IC50", "setting": "Human 11β-HSD1 [1]", "result": 7.8, "unit": "nM"}, {"measurement": "IC50", "setting": "mouse 11β-HSD1", "result": 98, "unit": "nM"}, {"measurement": "Selectivity over human 11β-HSD2", "setting": "Human 11β-HSD2 [2]", "result": "> 450", "unit": "fold"}, {"measurement": "Selectivity over mouse 11β-HSD2", "setting": "mouse 11β-HSD2", "result": "> 100", "unit": "fold"}]}
{"compound": "O=C(/C=C/c1cccs1)/C=C/c1cccs1", "note": "[compound 6, (1E,4E)-1,5-bis(thiophen-2-yl) penta-1,4-dien-3-one]", "values": [{"measurement": "Rat 11β-HSD1 Potency to Curcumin (fold)", "setting": "Rat 11β-HSD1; relative to curcumin", "result": 31.44, "unit": "fold"}, {"measurement": "IC50", "setting": "Rat 11β-HSD1; read-out: Rat 11β-HSD1 IC50 (nM) in Leydig cells", "result": 184, "unit": "nM"}, {"measurement": "Human 11β-HSD1 Potency to Curcumin (fold)", "setting": "Human 11β-HSD1 [3]; CHOP cells transfected with human HSD11B1, relative to curcumin", "result": 24.68, "unit": "fold"}, {"measurement": "IC50", "setting": "Human 11β-HSD1 [3]; CHOP cells transfected with human HSD11B1, read-out: Human 11β-HSD1 IC50 (nM) in CHOP cells", "result": 93, "unit": "nM"}, {"measurement": "Inhibition of rat 11β-HSD2 at 100 µM", "setting": "Rat 11β-HSD2; 100 µM", "result": "did not inhibit"}, {"measurement": "IC50", "setting": "Rat 11β-HSD2; rat kidney microsomes", "result": "> 100000", "unit": "nM"}, {"measurement": "Inhibition of human 11β-HSD2 at 100 µM", "setting": "Human 11β-HSD2 [4]; 100 µM", "result": "did not inhibit"}, {"measurement": "IC50", "setting": "Human 11β-HSD2 [4]; human kidney microsomes, read-out: IC50 (nM) Human 11β-HSD2", "result": "> 100000", "unit": "nM"}, {"measurement": "Mode of inhibition of rat 11β-HSD1", "setting": "[5]", "result": "competitive mode; also recorded: competitive inhibitor"}, {"measurement": "Mode of inhibition of human 11β-HSD1", "setting": "human liver 11β-HSD1", "result": "same mode; also recorded: competitive inhibitor"}]}
{"compound": "BVT2733", "values": [{"measurement": "IC50", "setting": "mouse 11β-HSD1; mouse enzyme", "result": 96, "unit": "nM"}, {"measurement": "Effect on blood glucose level", "setting": "hyperglycemic KKAy mouse", "result": "significantly lowered"}]}
